T/C data for 16 compounds are collected here from PubChem BioAssay AID248 (DTP/NCI, 2004).

Several values for one entry are separate records, joined by “and”; a condition that tells them apart may be missing. Identical values can stand only once. Inconclusive results and toxic doses are left out.

The assay concerns L1210 leukemia ip in BDF1 mice, survival T/C. Put plainly: NCI In Vivo Anticancer Drug Screen. Data for tumor model L1210 Leukemia (intraperitoneal) in B6D2F1 (BDF1) mice. As to conditions: endpoint: mean survival time, higher = longer survival. The procedure, abridged: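 Ratio derived from survival: compound-dosed mice over vehicle-dosed mice, all bearing a transplantable tumor.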

The mark [1] stands for this setting: dose: 100.0 mg/kg/injection, schedule: Q01DX001 (ip), vehicle: saline.
Where [2] appears, read: dose: 200.0 mg/kg/injection, schedule: Q01DX001 (ip), vehicle: saline.
Setting [3] is: dose: 400.0 mg/kg/injection, schedule: Q01DX001 (ip), vehicle: saline.
[4] abbreviates: dose: 50.0 mg/kg/injection, schedule: Q04DX003 (ip), vehicle: Klucel (hydroxypropylcellulose) (HPC).
[5] abbreviates: dose: 100.0 mg/kg/injection, schedule: Q01DX009 (ip), vehicle: Klucel (hydroxypropylcellulose) (HPC).
Where [6] appears, read: dose: 100.0 mg/kg/injection, schedule: Q04DX003 (ip), vehicle: Klucel (hydroxypropylcellulose) (HPC).
[7] abbreviates: dose: 200.0 mg/kg/injection, schedule: Q01DX009 (ip), vehicle: Klucel (hydroxypropylcellulose) (HPC).
Where [8] appears, read: dose: 200.0 mg/kg/injection, schedule: Q04DX003 (ip), vehicle: Klucel (hydroxypropylcellulose) (HPC).
Where [9] appears, read: dose: 100.0 mg/kg/injection, schedule: Q04DX003 (ip), vehicle: saline.
The mark [10] stands for this setting: dose: 200.0 mg/kg/injection, schedule: Q04DX003 (ip), vehicle: saline.
[11] abbreviates: dose: 100.0 mg/kg/injection, schedule: Q04DX003 (ip), vehicle: saline with Tween-80.
The mark [12] stands for this setting: dose: 200.0 mg/kg/injection, schedule: Q04DX003 (ip), vehicle: saline with Tween-80.
The mark [13] stands for this setting: dose: 400.0 mg/kg/injection, schedule: Q04DX003 (ip), vehicle: saline with Tween-80.

`O[C@H](CN1CC1)[C@@H](O)CN1CC1`: the T/C runs as follows: (dose: 0.05 mg/kg/injection, schedule: Q01DX010 (oral), vehicle: other) 114 % of control; (dose: 0.05 mg/kg/injection, schedule: Q01DX010 (oral), vehicle: saline) 111 % of control; (dose: 0.05 mg/kg/injection, schedule: Q01DX Z (ip), vehicle: methylcellulose (MC)) 154 % of control; (dose: 0.1 mg/kg/injection, schedule: Q01DX010 (oral), vehicle: saline) 118 % of control; (dose: 0.1 mg/kg/injection, schedule: Q01DX Z (ip), vehicle: methylcellulose (MC)) 87 % of control; (dose: 0.1 mg/kg/injection, schedule: Q01DX Z (oral), vehicle: saline) 101 % of control. Also, the T/C (dose: 0.13 mg/kg/injection, schedule: Q01DX009 (ip), vehicle: saline) was 187 % of control and 192 % of control; the T/C (dose: 0.2 mg/kg/injection, schedule: Q01DX010 (oral), vehicle: other) is 157 % of control; the T/C (dose: 0.25 mg/kg/injection, schedule: Q01DX009 (ip), vehicle: saline) is 204 % of control and 206 % of control; the T/C (dose: 0.3 mg/kg/injection, schedule: Q01DX Z (oral), vehicle: saline) was 111 % of control; the T/C (dose: 0.4 mg/kg/injection, schedule: Q01DX010 (oral), vehicle: saline) is 164 % of control; the T/C (dose: 0.44 mg/kg/injection, schedule: Q01DX Z (oral), vehicle: saline) was 172 % of control. For the same compound, the T/C is, setting by setting: (dose: 0.5 mg/kg/injection, schedule: Q01DX009 (ip), vehicle: saline) 221 % of control and 257 % of control; (dose: 0.66 mg/kg/injection, schedule: Q01DX Z (oral), vehicle: saline) 182 % of control; (dose: 0.8 mg/kg/injection, schedule: Q01DX010 (oral), vehicle: other) 88 % of control; (dose: 0.8 mg/kg/injection, schedule: Q01DX010 (oral), vehicle: saline) 108 % of control; (dose: 1.0 mg/kg/injection, schedule: Q01DX009 (ip), vehicle: saline) 104 % of control and 88 % of control; (dose: 1.0 mg/kg/injection, schedule: Q01DX Z (ip), vehicle: methylcellulose (MC)) 121 % of control. Further, the T/C (dose: 1.0 mg/kg/injection, schedule: Q01DX Z (oral), vehicle: saline) is 122 % of control and the T/C (dose: 1.5 mg/kg/injection, schedule: Q01DX Z (oral), vehicle: saline) is 97 % of control.
`CCc1ccc(NC(=O)Nc2ccc(OC)cc2)cc1`: the T/C was 97 % of control (dose: 100.0 mg/kg/injection, schedule: Q01DX009 (ip), vehicle: gum acacia); 95 % of control (dose: 100.0 mg/kg/injection, schedule: Q04DX003 (ip), vehicle: gum acacia); 92 % of control (dose: 200.0 mg/kg/injection, schedule: Q01DX009 (ip), vehicle: gum acacia); 92 % of control (dose: 200.0 mg/kg/injection, schedule: Q04DX003 (ip), vehicle: gum acacia); 91 % of control (dose: 400.0 mg/kg/injection, schedule: Q01DX009 (ip), vehicle: gum acacia); 94 % of control (dose: 400.0 mg/kg/injection, schedule: Q04DX003 (ip), vehicle: gum acacia).
As for `CC(c1ccccc1)n1cnc2c(Cl)ncnc21` (stereo unspecified), the T/C by setting is: under setting [1], 98 % of control; under setting [2], 101 % of control; under setting [3], 110 % of control.
For the compound `COc1ccc(C2NCCCC2c2ccccc2)cc1` (stereo unspecified), the T/C reads like this: (dose: 100.0 mg/kg/injection, schedule: Q01DX001 (ip), vehicle: carboxymethylcellulose (CMC)) 102 % of control; (dose: 200.0 mg/kg/injection, schedule: Q01DX001 (ip), vehicle: carboxymethylcellulose (CMC)) 94 % of control; (dose: 400.0 mg/kg/injection, schedule: Q01DX001 (ip), vehicle: carboxymethylcellulose (CMC)) 110 % of control.
Consider `CC(c1ccccc1)n1ccnc1CO` (stereo unspecified), for which the T/C is 103 % of control and 112 % of control (dose: 50.0 mg/kg/injection, schedule: Q01DX009 (ip), vehicle: Klucel (hydroxypropylcellulose) (HPC)); 98 % of control under setting [4]; 102 % of control and 115 % of control under setting [5]; 106 % of control under setting [6]; 98 % of control under setting [7].
As to `CCCCCCCCCCCC(=O)NC(=S)Nc1cccc(F)c1`, the T/C is 95 % of control under setting [6] and 90 % of control under setting [8].
As for `Cc1ccc2nc(/C=C/c3ccc(N(C)C)cc3)cc(C)c2c1`, the T/C is, setting by setting: (dose: 25.0 mg/kg/injection, schedule: Q01DX Z (ip), vehicle: carboxymethylcellulose (CMC)) 89 % of control; (dose: 100.0 mg/kg/injection, schedule: Q01DX Z (ip), vehicle: carboxymethylcellulose (CMC)) 96 % of control; (dose: 200.0 mg/kg/injection, schedule: Q01DX Z (ip), vehicle: carboxymethylcellulose (CMC)) 100 % of control.
Take `Cc1nc(N)[nH]c(=O)c1CCCNC(=O)Cc1ccccc1`: the T/C runs as follows: (dose: 12.5 mg/kg/injection, schedule: Q01DX001 (ip), vehicle: Klucel (hydroxypropylcellulose) (HPC)) 105 % of control; (dose: 25.0 mg/kg/injection, schedule: Q01DX001 (ip), vehicle: Klucel (hydroxypropylcellulose) (HPC)) 97 % of control; (dose: 50.0 mg/kg/injection, schedule: Q01DX001 (ip), vehicle: Klucel (hydroxypropylcellulose) (HPC)) 100 % of control.
Turning to `[Cl][Pt+2]([Cl])([Cl])[Cl].c1ccc(C2CC[N-]CC2)cc1.c1ccc(C2CC[N-]CC2)cc1`, the T/C (dose: 50.0 mg/kg/injection, schedule: Q01DX009 (ip), vehicle: water) is 101 % of control; the T/C (dose: 100.0 mg/kg/injection, schedule: Q01DX009 (ip), vehicle: water) is 102 % of control; the T/C (dose: 100.0 mg/kg/injection, schedule: Q04DX003 (ip), vehicle: water) is 105 % of control; the T/C (dose: 200.0 mg/kg/injection, schedule: Q04DX003 (ip), vehicle: water) is 103 % of control.
With `CCOC(=O)C(C)N` (stereo unspecified), the T/C under setting [5] was 93 % of control; the T/C under setting [6] is 105 % of control; the T/C under setting [7] was 93 % of control; the T/C under setting [8] was 102 % of control; the T/C (dose: 400.0 mg/kg/injection, schedule: Q01DX009 (ip), vehicle: Klucel (hydroxypropylcellulose) (HPC)) was 97 % of control; the T/C (dose: 400.0 mg/kg/injection, schedule: Q04DX003 (ip), vehicle: Klucel (hydroxypropylcellulose) (HPC)) was 97 % of control.
For `O=C(O)CCSSc1ccc([N+](=O)[O-])cc1[N+](=O)[O-]`, the T/C by setting is: (dose: 12.5 mg/kg/injection, schedule: Q01DX009 (ip), vehicle: Klucel (hydroxypropylcellulose) (HPC)) 96 % of control; (dose: 12.5 mg/kg/injection, schedule: Q04DX003 (ip), vehicle: Klucel (hydroxypropylcellulose) (HPC)) 98 % of control; (dose: 25.0 mg/kg/injection, schedule: Q01DX009 (ip), vehicle: Klucel (hydroxypropylcellulose) (HPC)) 99 % of control; (dose: 25.0 mg/kg/injection, schedule: Q04DX003 (ip), vehicle: Klucel (hydroxypropylcellulose) (HPC)) 107 % of control; under setting [4], 105 % of control.
With `O=[N+]([O-])c1ccc(-c2nn[nH]n2)cc1`, the T/C was 92 % of control under setting [1]; 103 % of control under setting [9]; 103 % of control under setting [2]; 93 % of control under setting [10]; 96 % of control (dose: 264.0 mg/kg/injection, schedule: Q04DX003 (ip), vehicle: acetone); 106 % of control (dose: 264.0 mg/kg/injection, schedule: Q04DX003 (ip), vehicle: saline with Tween-80). The T/C is 105 % of control under setting [3] and 102 % of control (dose: 400.0 mg/kg/injection, schedule: Q04DX003 (ip), vehicle: acetone).
Consider `Nc1ccc(Cl)cc1C(=O)c1ccccn1`, for which the T/C was 100 % of control under setting [11], 108 % of control under setting [12] and 97 % of control under setting [13].
As for `CC[N+](C)(C)CCCOC(=O)C1C2CC3OC(=O)C1C3C2` (stereo unspecified), the T/C was 101 % of control (dose: 25.0 mg/kg/injection, schedule: Q04DX003 (ip), vehicle: saline); 105 % of control (dose: 50.0 mg/kg/injection, schedule: Q04DX003 (ip), vehicle: saline); 103 % of control and 108 % of control under setting [9]; 97 % of control under setting [10].
With `O=[N+]([O-])c1ccc(Oc2ccccc2)c(S(=O)(=O)O)c1`, the T/C by setting is: under setting [11], 103 % of control; under setting [12], 94 % of control; under setting [13], 97 % of control.
`CCCCOC(=O)CCCCC(=O)OC(C)C(=O)OCCCC` (stereo unspecified): the T/C under setting [1] was 102 % of control, the T/C under setting [2] was 102 % of control and the T/C under setting [3] was 89 % of control.
